Where two headings read alike, the source gives them in different places.
Columns and labels:
[1] = in vitro; conditions: rat, microsomes, pH 7.4
[2] = in vitro; conditions: PAMPA
[3] = biological target: MERS Mpro (Middle East respiratory syndrome-related coronavirus (isolate United Kingdom/H123990006/2012) (MERS-CoV) (Betacoronavirus England 1), UniProt K9N7C7); experiment: biochemical
[4] = test system: OC43 virus; experiment: microbe, parasite or virus in culture; type: cell-based; conditions: Betacoronavirus 1, OC43, Huh-7, read-out: Antiviral OC43 EC50 (μM)
[5] = biological target: 229E Mpro (Human coronavirus 229E (HCoV-229E), UniProt P0C6X1); type: biochemical
Chain of 229E Mpro (P0C6X1 2966-3267 limits assumed): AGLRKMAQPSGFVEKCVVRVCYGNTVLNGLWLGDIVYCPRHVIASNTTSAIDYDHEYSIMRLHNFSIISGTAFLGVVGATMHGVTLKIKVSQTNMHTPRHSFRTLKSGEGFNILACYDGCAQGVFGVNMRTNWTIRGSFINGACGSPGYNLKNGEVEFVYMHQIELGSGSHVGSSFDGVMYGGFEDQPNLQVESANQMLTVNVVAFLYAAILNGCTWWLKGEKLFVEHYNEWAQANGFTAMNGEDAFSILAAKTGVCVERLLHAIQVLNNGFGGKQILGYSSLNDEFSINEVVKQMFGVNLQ

[6] = test system: 229E virus; experiment: organism not typed; type: cell-based; conditions: Huh-7, read-out: Antiviral 229E EC50 (μM)
[7] = biological target: OC43 Mpro (Human coronavirus OC43 (HCoV-OC43), UniProt P0C6X6); type: biochemical
Chain of OC43 Mpro (P0C6X6 3247-3549 limits assumed): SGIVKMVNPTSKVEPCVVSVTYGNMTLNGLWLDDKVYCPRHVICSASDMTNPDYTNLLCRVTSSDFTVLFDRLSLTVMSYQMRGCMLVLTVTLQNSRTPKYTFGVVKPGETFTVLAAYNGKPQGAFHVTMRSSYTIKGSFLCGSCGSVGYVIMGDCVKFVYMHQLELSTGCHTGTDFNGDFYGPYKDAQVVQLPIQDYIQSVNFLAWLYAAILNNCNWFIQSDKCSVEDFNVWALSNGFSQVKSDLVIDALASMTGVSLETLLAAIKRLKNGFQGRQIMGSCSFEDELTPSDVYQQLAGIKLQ

[8] = in vitro; conditions: human, microsomes, pH 7.4
[9] = biological target: SARS-CoV-2 Mpro (Severe acute respiratory syndrome coronavirus 2 (2019-nCoV) (SARS-CoV-2), UniProt P0DTD1); type: biochemical
[10] = biological target: SARS-CoV-1 Mpro (Severe acute respiratory syndrome coronavirus (SARS-CoV), UniProt P0C6X7); type: biochemical
[11] = test system: SARS-CoV-2 (strain USA-WA1/2020); experiment: microbe, parasite or virus in culture; type: cell-based
[12] = Severe acute respiratory syndrome coronavirus 2, HeLa-ACE2 cells, read-out: Antiviral CoV-2 EC50

Chain of MERS Mpro (K9N7C7 3248-3553 limits assumed): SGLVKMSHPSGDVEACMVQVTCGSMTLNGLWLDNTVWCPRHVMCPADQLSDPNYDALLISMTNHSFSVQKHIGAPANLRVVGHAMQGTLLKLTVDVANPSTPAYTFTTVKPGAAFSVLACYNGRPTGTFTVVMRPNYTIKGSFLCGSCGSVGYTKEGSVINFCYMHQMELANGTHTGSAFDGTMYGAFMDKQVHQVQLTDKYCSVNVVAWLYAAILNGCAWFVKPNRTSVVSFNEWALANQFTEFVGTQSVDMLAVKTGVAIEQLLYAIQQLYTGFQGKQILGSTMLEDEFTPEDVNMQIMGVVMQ

SMILES | CLint scaled [1] [mL/min/kg] | Papp [2] [×10⁻⁶ cm/s] | EC50 [3] [nM] | EC50 [4] [µM] | EC50 [5] [nM] | EC50 [6] [µM] | EC50 [7] [nM] | CLint scaled [8] [mL/min/kg] | EC50 [9] [nM] | EC50 [10] [nM] | EC50 [11, 12] [µM] | EC50 ([11]; Severe acute respiratory syndrome coronavirus 2, HeLa-ACE2, read-out: Antiviral CoV-2 EC50 (μM)) [µM]
C[C@@H]1C[C@@H](NC(=O)c2cc(=O)[nH]c3c(F)cccc23)CN1c1c(C(=O)N2CCOCC2)cc(C#N)cc1C(F)(F)F [Compound 30] | 303 | 13.3 | 1.04 | 0.029 | 1.25 | 0.011 | 0.58 | 61.7 | 0.42 |  |  | 
O=C(N[C@@H]1CCN(c2c(C(=O)N3CC4(COC4)C3)cc(Br)cc2C(F)(F)F)C1)c1cc(=O)[nH]c2c(F)cccc12 [Compound 73] | 327 | 11.7 | 1.69 |  | 5.79 |  | 1.13 | 117 | 0.53 | 3.84 | 0.0123 | 
CN1CCN(C(=O)c2cc(Br)cc(C(F)(F)F)c2N2CC[C@@H](NC(=O)c3cc(=O)[nH]c4c(F)cccc34)C2)CC1 [Compound 63] | 722 | 5.6 | 1.06 |  | 1.99 |  | 0.91 | 357 | 0.56 | 1.27 | 0.0127 | 
O=C(N[C@@H]1CCN(c2c(C(=O)N3CCN4CCOCC4C3)cc(Br)cc2C(F)(F)F)C1)c1cc(=O)[nH]c2c(F)cccc12 (some centres unmarked) [Compound 71] | 358 | 18.8 | 0.78 |  | 3.84 |  | 0.66 | 423 | 0.42 | 1.94 |  | 
N#Cc1cc(C(=O)N2CCOCC2)c(N2CC[C@@H](NC(=O)c3c(F)c(=O)[nH]c4c(F)cccc34)C2)c(C(F)F)c1 [Compound 39] | < 41.7 | 4.71 | 1.12 |  | 3.45 |  | 1.05 | < 25 | 0.42 | 2.56 | 0.0189 | 
COc1cccc2[nH]c(=O)cc(C(=O)N[C@H]3CN(c4c(C(=O)N5CCOCC5)cc(C)cc4C4CC4)C[C@@H]3OC)c12 [Compound 84] | 195 | 3.6 | 2.44 | 0.019 | 2.35 | 0.141 | 0.64 | 120 | 0.6 |  | 0.0351 | 
Cc1cc(C(=O)N2CCOCC2)c(N2CC[C@@H](NC(=O)c3cc(=O)[nH]c4c(F)cccc34)C2)c(C2CC2)c1 [Compound 45] | 942 | 14.7 | 0.7 | < 0.03 | 1.52 | 0.0561 | 0.51 | 352 | 0.42 |  | 0.0186 | 
O=C(N[C@@H]1CCN(c2c(C(=O)N3CCOCC3)cc(F)cc2C2CC2)C1)c1cc(=O)[nH]c2c(F)cccc12 [Compound 46] | 897 | 15.2 | 1.75 | 0.049 | 2.76 | 0.073 | 0.81 | 53.3 | 0.47 |  | 0.0209 | 
Cc1cc(C(=O)N2CCOCC2)c(N2CC[C@@H](NC(=O)c3cc(C)[nH]c(=O)c3F)C2)c(C2CC2)c1 [Compound 60] |  | 2.95 | 1.4 |  | 5.14 |  | 1.22 | 66.7 | 0.48 | 0.74 | 0.18 | 
Cc1cc(C(=O)N2CCOCC2)c(N2C[C@H](NC(=O)c3cc(=O)[nH]c4c(F)c(F)ccc34)CC2=O)c(C2CC2)c1 [Compound 75] | < 55 | 2.46 | 1.72 |  | 6.11 |  | 2.25 | < 33.3 | 0.63 | 0.72 | 0.0231 | 
COc1cccc2[nH]c(=O)cc(C(=O)N[C@@H]3CCN(c4c(C5CC5)ccc(F)c4C(=O)N4CCOCC4)C3)c12 [Compound 78] | 418 | 2.46 | 2.31 | 0.0978 | 1.99 | 0.0481 | 1.45 | 188 | 1.42 |  | 0.46 | 
Cc1cc(C(=O)N[C@@H]2CCN(c3c(C(=O)N4CCOCC4)cc(Br)cc3C(F)(F)F)C2)c(F)c(=O)[nH]1 [Compound 3, (R)—N-(1-(4-bromo-2-(morpholine-4-carbonyl)-6-(trifluoromethyl)phenyl)pyrrolidin-3-yl)-3-fluoro-6-methyl-2-oxo-1,2-dihydropyridine-4-carboxamide] | < 60 | 5.84 | 1.23 |  | 12.9 |  | 3.88 | < 36.7 | 0.63 | 0.97 | 0.0203 | 
O=C(N[C@@H]1CCN(c2c(C(=O)N3CC4CC(C3)O4)cc(Br)cc2C(F)(F)F)C1)c1cc(=O)[nH]c2c(F)cccc12 [Compound 65] | 258 | 16 | 1.54 |  | 2.76 |  | 1.29 | 93.3 | 0.42 | 1.86 |  | 0.0092
CN1CCN(C(=O)c2cc(Cl)cc(C(F)(F)F)c2N2CC[C@@H](NC(=O)c3cc(=O)[nH]c4c(F)cccc34)C2)CC1 [Compound 37] | 423 | 6.23 | 1.22 |  | 2.53 |  | 1 | 150 | 0.63 | 1.68 | 0.0288 | 
O=C(N[C@@H]1CCN(c2c(C(=O)N3CCOCC3)cc(Cl)cc2C(F)(F)F)C1)c1c(F)c(=O)[nH]c2c(F)cccc12 [Compound 55] | 318 | 18.6 | 0.84 |  | 1.74 |  | 0.42 | 157 | 0.42 | 0.56 | 0.0046 | 
NC(=O)c1cc(C(=O)N2CCOCC2)c(N2CC[C@@H](NC(=O)c3cc(=O)[nH]c4c(F)cccc34)C2)c(C(F)(F)F)c1 [Compound 35] | 46.7 | 0.1 | 0.93 |  | 2.6 |  | 16.5 | < 28.3 | 0.53 | 2.45 |  | 
O=C(N[C@@H]1CCN(c2c(OC(F)F)cc(Cl)cc2C(=O)N2CCOCC2)C1)c1cc(=O)[nH]c2c(F)cccc12 [Compound 43] | 312 | 12.7 | 1.41 |  | 15 |  | 3.17 | 100 | 0.46 |  | 0.0247 | 
O=C(N[C@@H]1CCN(c2c(C(=O)N3CCOCC3)cc(Br)cc2C(F)F)C1)c1c(F)c(=O)[nH]c2c(F)cccc12 [Compound 54] | 257 | 13.1 | 1.12 |  | 4.72 |  | 0.42 | 140 | 0.43 |  | 0.005 | 
N#Cc1cc(C(=O)N2CCOCC2)c(N2CC[C@@H](NC(=O)c3cc(=O)[nH]c4c(F)cc(F)cc34)C2)c(C(F)(F)F)c1 [Compound 7] | < 58.3 | 6.77 | 0.99 |  | 2.76 |  | 4.95 | < 35 | 0.43 |  | 0.0256 | 
COc1cc(F)cc2[nH]c(=O)cc(C(=O)N[C@@H]3CCN(c4c(C(=O)N5CCOCC5)cc(Br)cc4C(F)(F)F)C3)c12 [Compound 57] | 437 | 4.09 | 0.53 | 0.095 | 0.88 | 0.083 | 0.42 | 125 | 0.42 |  |  | 
COCCN1CCN(C(=O)c2cc(Br)cc(C(F)(F)F)c2N2CC[C@@H](NC(=O)c3cc(=O)[nH]c4c(F)cccc34)C2)CC1 [Compound 67] | 1180 | 16.3 | 1.5 |  | 4.22 |  | 1.52 | 313 | 0.5 | 2.56 |  | 
Cc1[nH]c(=O)cc(C(=O)N[C@@H]2CCN(c3c(C(=O)N4CCOCC4)cc(Br)cc3C(F)(F)F)C2)c1F [Compound 59] | < 68.3 | 8.24 | 1.01 |  | 20.4 |  | 6.09 | < 61.7 | 1.11 |  | 0.0956 | 
O=C(N[C@@H]1CCN(c2c(C(=O)N3CCOCC3)cc(F)cc2C(F)(F)F)C1)c1cc(=O)[nH]c2c(F)cc(F)cc12 [Compound 38] | 625 | 14.5 | 2.39 | 0.327 | 5.9 | 0.142 | 9.11 | 173 | 1.84 |  |  | 
